Experimental data reported in patent US7211602B2, “Treatment of neurodegenerative disorders through the modulation of the polyamine pathway” (ALS Therapy Development Foundation, Inc., priority 2001, dated 2007).
Read-outs that look alike come from different tables or passages of the source.

Legend:
[1] = test system: SOD1 G93A mice
Excerpt: • (i) Model Description: The SOD1 G93A (high copy) mouse model was used as the model for ALS. This mouse model carries 25 copies of the human G93A SOD mutation and is driven by the endogenous promoter. Survival in the mouse is copy dependent. The high copy G93A has a median survival of around 128 days. High molecular weight complexes of mutant SOD protein are seen in the spinal cord beginning around day 30. At day 60 reactive astrocytosis (GFAP reactive) are observed; activated microglia are observed from day 90 onwards.
DFMO was obtained in oral form from ILEX Oncology, Inc (San Antonio, Tex.). • (iv) Methods: Forty (n=40) SOD1 G93A high copy mice obtained from Jackson Laboratory (Bar Harbor, Me.) were separated into two groups of twenty (n=20) with an equal number of males (n=10) and females (n=10) in each group. The groups were also litter matched to reduce group variation. Male animals were singly housed and females were group housed to conserve space. […] When animals had difficulty in moving and taking care of themselves chow and water were replaced with food pellets in bedding and Jell-O for water. • (v) Pharmacological Agent Delivery: All pharmacological agents were administered to SOD1 G93A mice. DFMO was delivered according to a chronic delivery protocol applied in the human glioblastoma trial (UCSF Clinical trial protocol of ALS).
In Example 2, the animals were dosed at 3200 mg/Kg/day of DFMO in drinking water for 21 days followed by a 7 day drug holiday (no DFMO). In Example 3, the animals were continually dosed at 3200 mg/Kg/day of DFMO in drinking water. Controls animals were given water as vehicle. All treatments are performed 7 days per week and treatment was initiated at day 60 of life. The treated group continued to receive 3200 mg/kg/day of DFMO in drinking water until a neurological score of 2 (See section (vi) below) at which point drug was delivered via intraperitineal injection (IP) injection. When a neurological score of 2 is attained, the animals are no longer capable of drinking themselves due to paralysis. At this point, the same dosage of DFMO is administered to the animal in IP injection form. Controls were given water as vehicle until a neurological score of 2 at which point they were injected with saline as vehicle.
In Example 6, hydroxyurea was administered by intraperitineal injection at a dose of 250 mg/Kg/day once daily for 7 days a week, beginning at day 50 until day 110.
The animals are sacrificed at this stage if alive. • (vii) End Points and Statistics: The primary end point is survival with secondary end points of neurological score and body weight. Neurological score observations and body weight are made and recorded five days per week. • (viii) Statistical Analysis: Statistical analysis on body weight and neurological score was performed using mixed linear model repeated measure ANOVA. Survival analysis was performed by Kaplan-Meier analysis using the frailty model for sex and litter correction.

[2] = test system: patients with advanced non-small cell lung cancer; settings: Hahm et al. 2002; cited from earlier work
[3] = test system: ODC; settings: cited from earlier work

CCNCCCNCCCNCCCNCC [DENSPM, N(1),N(11)-diethylnorspermine]
Neurological score analysis, female ([1]; intraperitoneal 24 mg/kg/day twice daily till death, FIG. 13): protective
Percent survival analysis: onset of disease and survival ([1]; intraperitoneal 24 mg/kg/day twice daily, 7 days a week till death, female mice, FIG. 12): delays the onset of disease and extends the survival
safety of administration to patients [2]: minimal toxicity

NCCCCNCCCN [spermidine]
concentration in the culture medium that can inhibit ODC production for hours [3]: 50 µM

NC(=O)NO [hydroxyurea]
Percent survival analysis: life span ([1]; intraperitoneal 250 mg/Kg/day once daily, day 50 until day 110, female mice, FIG. 10): extended the life span
Neurological score analysis, female ([1]; intraperitoneal 250 mg/Kg/day once daily, day 50 until day 110, FIG. 11): protective

NCCCC(N)(C(=O)O)C(F)F (racemic) [DFMO, 2-(Difuoromethyl)-DL-ornithine]
effect in male mice, ongoing IP injection study ([1]; IP injection, 3200 mg/kg, male mice): positive male trend
Percent survival analysis: life span ([1]; continuous dosing 3200 mg/Kg/day in drinking water, no drug holiday, until death, FIGS. 4, 6 and 8): extended the life span
Neurological score analysis, combined male and female ([1]; continuous dosing 3200 mg/Kg/day, combined male and female, FIG. 5): protective
Neurological score analysis, female ([1]; continuous dosing 3200 mg/Kg/day, FIG. 9): protective
Neurological score analysis, male ([1]; continuous dosing 3200 mg/Kg/day, male, FIG. 7): protective
Neurological score analysis, combined results ([1]; discontinuous dosing 3200 mg/Kg/day, combined male and female mice): No effect
Neurological score analysis, female mice ([1]; discontinuous dosing 3200 mg/Kg/day, female mice, during the drug delivery period, FIG. 3): protective
Neurological score analysis, male mice ([1]; discontinuous dosing 3200 mg/Kg/day, male mice): No effect
Percent survival analysis: onset of disease and survival ([1]; discontinuous dosing, 3200 mg/Kg/day in drinking water, 21 days on / 7 day holiday, FIG. 2): delays the onset of disease and extends the survival
deaths of animals in the treatment group that occurred during the drug holiday or a few days immediately succeeding the holiday ([1]; female SOD1 G93A mice, 3200 mg/Kg/day in drinking water for 21 days followed by 7 day drug holiday, control group 30%, FIG. 2): 70%
